Details: 323.15 K, Liquid, Vibrating tube method

CCCCC(=O)OCC(COC(=O)CCCC)(COC(=O)CCCC)COC(=O)CCCC [pentaerythritol tetrapentanoate]
Details | mass density [kg/m3]
5507 kPa | 998.5
5515.1 kPa | 998.5
5521.3 kPa | 998.4
5527 kPa | 998.5
5546.7 kPa | 998.6
5564 kPa | 998.6
5581.9 kPa | 998.5
5599.5 kPa | 998.6
5620.8 kPa | 998.5
5638.1 kPa | 998.7
5660 kPa | 998.6
5678.2 kPa | 998.6
5695.6 kPa | 998.6
5714.3 kPa | 998.7
5736.6 kPa | 998.6
5755.1 kPa | 998.7
5774.3 kPa | 998.6
5797.1 kPa | 998.8
5816.3 kPa | 998.9
5836 kPa | 998.8
5854.9 kPa | 998.8
5878.6 kPa | 998.8
5898.5 kPa | 998.8
5917.1 kPa | 998.8
5937.2 kPa | 998.9
5961 kPa | 998.8
5982 kPa | 998.9
6002.4 kPa | 998.9
6023.3 kPa | 998.8
6048 kPa | 998.8
6068.6 kPa | 999
6091.7 kPa | 998.8
6114.3 kPa | 999
6135.5 kPa | 998.8
6162.7 kPa | 998.9
6183.1 kPa | 998.9
6205.3 kPa | 999
6226.8 kPa | 999.1
6253.6 kPa | 999.1
6278.3 kPa | 999
6299 kPa | 999
6322 kPa | 999.1
6349.8 kPa | 999.1
6371.6 kPa | 999.1
6395.8 kPa | 999.1
6420.4 kPa | 999
6446 kPa | 999.2
6472.8 kPa | 999.2
6495.8 kPa | 999.3
6521.7 kPa | 999.2
6549.3 kPa | 999.2
6572.1 kPa | 999.2
6596.7 kPa | 999.3
6622.6 kPa | 999.3
6652.8 kPa | 999.2
6676.5 kPa | 999.3
6703.4 kPa | 999.2
6735.7 kPa | 999.4
6761.8 kPa | 999.4
6788.6 kPa | 999.5
6816.1 kPa | 999.4
6841.8 kPa | 999.4
6873.6 kPa | 999.5
6900.5 kPa | 999.4
6928.9 kPa | 999.6
6961.3 kPa | 999.6
6989.5 kPa | 999.5
7017 kPa | 999.6
7044.4 kPa | 999.4
7079.5 kPa | 999.6
7110.4 kPa | 999.7
7137.5 kPa | 999.7
7169.3 kPa | 999.6
7204.5 kPa | 999.8
7233.8 kPa | 999.7
7265.1 kPa | 999.7
7295.5 kPa | 999.8
7332.3 kPa | 999.8
7362 kPa | 999.7
7393.2 kPa | 999.8
7425.1 kPa | 999.9
7462.4 kPa | 999.8
7497 kPa | 1000
7529.6 kPa | 999.9
7562.2 kPa | 999.9
7602.1 kPa | 1000
7634.4 kPa | 999.9
7668.9 kPa | 1000
7702.7 kPa | 1000
7742.2 kPa | 1000
7778.3 kPa | 1000.1
7818.5 kPa | 1000.1
7854.9 kPa | 1000.1
7890.7 kPa | 1000.1
8008.7 kPa | 1000.2
8045.6 kPa | 1000.3
8085.8 kPa | 1000.3
8132.2 kPa | 1000.2
8166 kPa | 1000.4
8197.3 kPa | 1000.4
8234.5 kPa | 1000.4
8265.2 kPa | 1000.4
8297.6 kPa | 1000.5
8334.6 kPa | 1000.5
8366.3 kPa | 1000.6
8398.2 kPa | 1000.5
8437.2 kPa | 1000.5
8471.2 kPa | 1000.5
8502.6 kPa | 1000.5
8536.2 kPa | 1000.6
8575.9 kPa | 1000.5
8609.5 kPa | 1000.6
8644.9 kPa | 1000.7
8686.6 kPa | 1000.7
8721.6 kPa | 1000.7
8763.3 kPa | 1000.7
8798.5 kPa | 1000.8
8835.2 kPa | 1000.8
8871.2 kPa | 1000.7
8918.5 kPa | 1000.9
8948.2 kPa | 1000.9
8992.3 kPa | 1000.9
9029 kPa | 1000.9
9074.5 kPa | 1000.9
9112.8 kPa | 1001
9150.4 kPa | 1001.1
9188.8 kPa | 1001.1
9235.3 kPa | 1001
9275.3 kPa | 1001.2
9315.5 kPa | 1001.1
9364.1 kPa | 1001.1
9405.6 kPa | 1001.2
9494 kPa | 1001.2
9537.2 kPa | 1001.2
9589.3 kPa | 1001.2
9624.3 kPa | 1001.3
9656.6 kPa | 1001.3
9695.6 kPa | 1001.3
9727.6 kPa | 1001.5
9873 kPa | 1001.5
9976.5 kPa | 1001.6
10018 kPa | 1001.6
10129 kPa | 1001.8
10165 kPa | 1001.7
10208 kPa | 1001.8
10280 kPa | 1001.7
10325 kPa | 1001.8
10362 kPa | 1001.9
10400 kPa | 1001.9
10447 kPa | 1001.9
10486 kPa | 1001.9
10527 kPa | 1002
10577 kPa | 1001.8
10620 kPa | 1002.1
10661 kPa | 1002
10691 kPa | 1002.1
10711 kPa | 1002.1
10731 kPa | 1002.2
10755 kPa | 1002.1
10775 kPa | 1002

Reference: the NIST ThermoML archive (doi:10.1021/je060271a)
